Experimental data: article PMC2642983 (AIDS (London, England), 2009)
Read-outs that look alike come from different tables or passages of the source. Marks after values point to notes of the source that are not given here.

What was measured:
[1] = test system: HIV RNA in the CSF; conditions: over 3 weeks, all 13 participants receiving monotherapy; cited from earlier work
[2] = test system: wild-type HIV; conditions: estimated with no protein (protein-free medium); cited from earlier work
[3] = cited from earlier work
[4] = test system: HIV RNA in the CSF; experiment: Detectable HIV RNA in CSF by CSF atazanavir detectability; type: in vivo
[5] = for CSF concentrations fold lower than plasma concentrations: even with ritonavir boosting
[6] = Population pharmacokinetic modelling; type: in vivo, human; conditions: for CSF penetration (% of plasma concentration): modeled estimate
[7] = test system: plasma proteins; conditions: no reference given; cited from earlier work
[8] = atazanavir with ritonavir, listed as atazanavir

lopinavir/ritonavir
change in CSF HIV RNA levels [1]: substantial declines in CSF HIV RNA levels

COC(=O)N[C@H](C(=O)N[C@@H](Cc1ccccc1)[C@@H](O)CN(Cc1ccc(-c2ccccn2)cc1)NC(=O)[C@@H](NC(=O)OC)C(C)(C)C)C(C)(C)C [Atazanavir, atazanavir]
wild-type IC50 [2]: 1 ng/mL | atazanavir CSF concentrations, average % of plasma concentrations ([3]; in vivo): 0.9% | CSF atazanavir concentrations as % of plasma concentrations ([3]; seven HIV-infected patients): approximately 1% | participants with measurable CSF HIV RNA ([4]; 12/60 participants with more than 5 ng/ml atazanavir in the CSF, P = 0.13): 20% | participants with detectable (>50 copies/ml) HIV RNA in the CSF ([4]; seven of 19 participants with no measurable atazanavir in the CSF): 37% | CSF specimens with concentrations near the protein-free IC50 (<5 ng/ml) ([5]; 11/67, after excluding probable nonadherence): 16% | CSF samples with undetectable atazanavir ([5]; <5 ng/ml, 19 of 79 samples): 24% | observed CSF concentrations ([5]; as summarised in the discussion): 10 ng/mL | CSF concentrations fold lower than plasma concentrations [5]: about 100 fold | CSF concentrations fold lower than plasma concentrations ([5]; listed as atazanavir): 100 fold | Kp ([5]; human, CSF, oral): < 0.01 | Median (interquartile range) CSF concentration ([5]; with ritonavir): 10.3 (<5–21.1) ng/ml | Median (range) CSF concentration ([5]; with ritonavir, 68 CSF samples): 10.3 (<5–38) ^† ng/ml | Median (interquartile range) CSF concentration ([5]; without ritonavir): 7.9 (6.6–22) ng/ml | Median (range) CSF concentration ([5]; without ritonavir, 11 CSF samples): 7.9 (<5–40) ng/ml | Intersubject variability of ke ([6]; atazanavir with ritonavir): 17% | Residual variability of CSF concentrations ([6]; atazanavir with ritonavir): 26% | Residual variability of plasma concentrations ([6]; atazanavir with ritonavir): 49% | oral clearance ([6]; atazanavir with ritonavir, corresponds to ke and Vd/F): 9.4 L/h | Residual variability of CSF concentrations [6, 8]: 26% | Residual variability of plasma concentrations [6, 8]: 49% | CSF penetration (% of plasma concentration) ([6]; atazanavir with ritonavir): 0.0074 (0.74%) | CSF penetration (% of plasma concentration) [6, 8]: 0.74% | Vd/F ([6]; human, plasma, oral): 209 L | half-life ([6]; human, plasma, oral): 15 h | k el ([6]; human, plasma, oral): 1.25e-05 s⁻¹ | median (IQR) plasma concentration (11 samples with no detectable CSF atazanavir but measurable plasma atazanavir): 315 (280–432) ng/ml | estimated free concentration of atazanavir in plasma (14% of 1510 ng/ml): approximately 210 ng/ml | plasma samples with undetectable atazanavir (<0.13 μg/ml, 17 of 149 samples): 11% | Median (interquartile range) plasma atazanavir concentration (atazanavir alone, without ritonavir): 523 (283–1344) ng/ml | median (IQR) plasma concentration (corresponding to the 60 CSF samples with detectable atazanavir): 1743 (925–2919) ng/ml | Median (interquartile range) plasma atazanavir concentration (with concomitant ritonavir): 1278 (525–2265) ng/ml | Median (range) plasma concentration (with ritonavir 100 mg daily, 130 plasma samples): 1278 (<128–5295) ^* ng/ml | Median (range) plasma concentration (without ritonavir, 18 plasma samples, 300 or 400 mg atazanavir daily): 523 (<128–6200) ng/ml | bound to plasma proteins [7]: 86% | free (not bound to plasma proteins) [7]: 14%
